Results from patent publication US12195588B2, “Polyether derivatives, uses, and methods of making the same” (P2 Science, Inc., priority 2017, dated 2025).
Like-named read-outs stand apart in the source and are kept apart here.

Test system: female Yellow Fever mosquitos (Aedes aegypti)
Assay type: in vivo
Method: Mosquitos are exposed to the treatments applied to 3-cm diameter collagen membranes placed over warmed, blood-filled wells in a multi-well plate. The wells are pre-warmed to 96-100° F., and then citrated whole blood with ATP is poured into each well to completely fill. The membrane is applied and secured using vacuum grease. To each membrane 25 microliters of the test solution is applied, and the solution is allowed to dry. The plate is then placed into a plastic box enclosure having 250 adult female mosquitos. The number of instances of a mosquito probing the membrane is recorded during a 20-minute period. The entire procedure is repeated until five replicates are complete. Treatment positions in the plates are rotated between each replicate to eliminate any positional bias. Fresh blood and mosquitoes are used in each replicate. Percent repellency is calculated by comparison to a negative control membrane treated only with water.
This is compared to a solution of DEET in IPA at 20% by weight as a control. The procedure is as described for Example 8.

[1] = Example 8, 25 microliters on membrane, 20-minute period, five replicates, DEET as 20% isopropanol solution
[2] = Example 8, by comparison to water-treated membrane, DEET as 20% isopropanol solution
[3] = Example 10, 20% by weight in IPA

In the case of `CCN(CC)C(=O)c1cccc(C)c1` [DEET, di-ethyl-meta-toluamide], the “Mosquito Probes” value [1] is reported as 0, the “% Repellency” value [2] is reported as 100% and the “% Repellency” value [3] is reported as 100%. The “Mosquito Probes” value [3] was 0.

For Citronellol dimer [Sample A], the “Mosquito Probes” value [1] was 0.4 and the “% Repellency” value [2] was 99.1%.

citronellol dimer acetate [Sample B] was tested, and the “Mosquito Probes” value [1] was 0.6 and the “% Repellency” value [2] was 98.8%.
